Test system: MDA-MB-468 spheroids with HUVEC/MSC, viability
Assay: Anticancer human tumor MDA-MB-468 cell line growth inhibition [PI3K];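 also: spheroids exposed to agents for seven days before readout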;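 as to viability, T/C: 100% = DMSO vehicle control viability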
Settings: for IC50: curve of first compound; for viability, T/C: stronger effect = lower value
In short: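 We assembled tumor spheroids that included a stromal compartment of HUVEC and MSCs, then exposed them to targeted agents alone and together with PI3K pathway inhibitors. Concentration series descended by half-log from clinically achievable Cmax levels. Viability served as the endpoint.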

CCN1CCN(Cc2ccc(Nc3ncc(F)c(-c4cc(F)c5nc(C)n(C(C)C)c5c4)n3)nc2)CC1 + Cc1nc(NC(=O)N2CCCC2C(N)=O)sc1-c1ccnc(C(C)(C)C(F)(F)F)c1
IC50 (second compound 0.0316 µM): > 1000 nM | IC50 (second compound 0.1 µM): > 1000 nM | IC50 (second compound 0.316 µM): > 1000 nM | IC50 (second compound 1 µM): 798 nM | IC50 (second compound 3.16 µM): 191 nM | IC50 (second compound 10 µM): < 3.16 nM | viability, T/C (second compound 0.0316 µM, first compound 0.00316 µM): 97.9% | viability, T/C (second compound 0.0316 µM, first compound 0.01 µM): 90% | viability, T/C (second compound 0.0316 µM, first compound 0.0316 µM): 83.8% | viability, T/C (second compound 0.0316 µM, first compound 0.1 µM): 113% | viability, T/C (second compound 0.0316 µM, first compound 0.316 µM): 90.8% | viability, T/C (second compound 0.0316 µM, first compound 1 µM): 59.9% | viability, T/C (second compound 0.1 µM, first compound 0.00316 µM): 98.3% | viability, T/C (second compound 0.1 µM, first compound 0.01 µM): 85.9% | viability, T/C (second compound 0.1 µM, first compound 0.0316 µM): 89.1% | viability, T/C (second compound 0.1 µM, first compound 0.1 µM): 104% | viability, T/C (second compound 0.1 µM, first compound 0.316 µM): 97.9% | viability, T/C (second compound 0.1 µM, first compound 1 µM): 55.3% | viability, T/C (second compound 0.316 µM, first compound 0.00316 µM): 92.4% | viability, T/C (second compound 0.316 µM, first compound 0.01 µM): 94% | viability, T/C (second compound 0.316 µM, first compound 0.0316 µM): 93.2% | viability, T/C (second compound 0.316 µM, first compound 0.1 µM): 81.3% | viability, T/C (second compound 0.316 µM, first compound 0.316 µM): 80.9% | viability, T/C (second compound 0.316 µM, first compound 1 µM): 52.7% | viability, T/C (second compound 1 µM, first compound 0.00316 µM): 94.9% | viability, T/C (second compound 1 µM, first compound 0.01 µM): 84.8% | viability, T/C (second compound 1 µM, first compound 0.0316 µM): 77% | viability, T/C (second compound 1 µM, first compound 0.1 µM): 76.9% | viability, T/C (second compound 1 µM, first compound 0.316 µM): 62.1% | viability, T/C (second compound 1 µM, first compound 1 µM): 46.2% | viability, T/C (second compound 3.16 µM, first compound 0.00316 µM): 68.7% | viability, T/C (second compound 3.16 µM, first compound 0.01 µM): 58.7% | viability, T/C (second compound 3.16 µM, first compound 0.0316 µM): 61.1% | viability, T/C (second compound 3.16 µM, first compound 0.1 µM): 64.8% | viability, T/C (second compound 3.16 µM, first compound 0.316 µM): 37.7% | viability, T/C (second compound 3.16 µM, first compound 1 µM): 41.6% | viability, T/C (second compound 10 µM, first compound 0.00316 µM): 39.1% | viability, T/C (second compound 10 µM, first compound 0.01 µM): 27.3% | viability, T/C (second compound 10 µM, first compound 0.0316 µM): 29.8% | viability, T/C (second compound 10 µM, first compound 0.1 µM): 25.3% | viability, T/C (second compound 10 µM, first compound 0.316 µM): 22% | viability, T/C (second compound 10 µM, first compound 1 µM): 23.5%

From PubChem BioAssay AID1963960 (Molecular Pharmacology Branch, DTP, NCI, 2024)
